The values that follow come from patent US7186699B2, “Method for treating cancer by vector-mediated delivery of one or more anti-angiogenic or pro-apoptotic genes” (Cell Genesys, Inc., priority 2003, dated 2007).

Data set [1] deals with Colo-205 cells. Briefly: DNA fragmentation (apoptosis) ELISA in Colo-205 cells. In kind it is cell-based, human. The text has this:
Apoptosis, e.g. […]
DNA fragmentation is quantitated by a photometric enzyme-immunoassay (Cell Death Detection ELISA Assay, Roche) for measuring cytoplasmic histone-associated nucleosomes according to the manufacturer's protocols. % Apoptosis is defined as relative increase in DNA fragmentation in treated vs. control cells calculated by [O.D. Treated−background]/[Maximal O.D.−Background].
In general terms: ELISA stands for enzyme-linked immunosorbent assay.

A further data set has as its system Caspase 8. Briefly: Caspase 8 protease activity in Colo-205 cell lysates (IETD-pNA). In kind it is cell-based, human. Here is the method:
(§1) In certain assays, cells are pre-treated with 20 uM of the pan-caspase inhibitor, ZVAD-fmk (RnD Systems), 1 hr prior to stimulation with TRAIL or control agents.

In another data set the test system is Caspase 3. As to the kind of experiment: Caspase 3 protease activity in Colo-205 cell lysates (DEVD-pNA). It is filed as cell-based, human. Here is the method: as §1
Data set [2] relates to HT29 colorectal tumor cells. Briefly: Chemosensitization of HT29 colon cancer cells to TRAIL. It is filed as cell-based, human. Here is the method:
FIGS. 17A–C show augmentation of sTRAIL-induced HT29 colon cancer cytotoxicity by chemotherapy sensitization.
(§2) Tumor cells are plated at 1e4 cells per well in 96-well plates and incubated overnight at 37 C after which time the cells are left untreated or treated with the indicated sub-toxic doses of chemotherapeutic agents. After 24 hr, the cells are left untreated, or treated with sub-toxic doses of recombinant human TRAIL or AAV-produced TRAIL for an additional 24, 48 or 72 hr. Cell viability is evaluated using a tetrazolium-salt (WST-8) based proliferation assay (Cell Counting Kit-8, Dojindo Laboratories, Japan) according to the manufacturer's recommendations. % Cytotoxicity/Growth Inhibition was defined as [1-(OD treated−background)/(OD untreated−background)×100].
(§3) The specificity of TRAIL-induced cell death was tested in a variety of tumor and normal cells. […] The combinatorial cytotoxic effects of TRAIL and chemotherapy were tested in a panel of tumor cells.

For data set [3], the system named is colorectal tumor cell lines (HT29, HCT-116, Colo-205). Briefly: Combination of sTRAIL and COX inhibitors in colorectal tumor cell lines. It is filed as cell-based, human. The settings on record: combined with high doses of SC-560 and Celebrex. The method, then: as §3
In the next data set the test system is human tumor cell lines. As to the kind of experiment: Sensitivity of tumor cell lines to TRAIL, WST-8 cytotoxicity assay. It is filed as cell-based. The settings on record: human tumor cell lines from diverse tissues; 24 hr; FIG. 14. Here is the method:
Briefly, 1e4 tumor cells (ATCC), or normal primary cells (BioWhittaker), are seeded in one well of a 96-well titer plate and incubated overnight at 37° C. Cells are then treated with the test or control agents for 24, 48 or 72 hr. Following treatment, cell viability is evaluated using a tetrazolium-salt (WST-8) based proliferation assay (Cell Counting Kit-8, Dojindo Laboratories, Japan) according to the manufacturer's recommendations. % Cytotoxicity/Growth inhibition is defined as [1-(OD treated−background)/(OD untreated−background)×100].
as §3
Background: Formazan colour is commonly taken as a measure of viable cells.

Data set [4] relates to A549 lung carcinoma, U87MG glioma, MCF7 breast carcinoma, PC-3 prostate carcinoma. Briefly: Chemosensitization of tumor cells to TRAIL. In kind it is cell-based, human. The settings on record: A549+cisplatin, U87MG+etoposide, MCF-7+doxorubicin, PC-3+doxorubicin; 24 hr pre-treatment with sub-toxic doses, then 24 hr TRAIL. The method, then: FIGS. 16A–D show augmentation of sTRAIL-induced tumor cell cytotoxicity by chemotherapy sensitization 1 e4 tumor cells were pretreated with genotoxic agents for 24 hr to sensitize, then subsequently treated with sTRAIL for 24 hr. Viability was measured by WST-8 tetrazolium salt assay after 24 hr sTRAIL treatment and % Growth inhibition=[1-(OD treated−background)/(OD untreated−background)×100].
as §2, §3

Data set [5] relates to Colo-205 cells. Briefly: Colo-205 growth inhibition/viability, WST-8 tetrazolium assay. In kind it is cell-based, human. The settings on record: 24, 48 and 72 hr treatment, FIG. 10B/10C.
Protocol: Cell proliferation was evaluated using a WST-8-based tetrazolium salt viability assay using the formulas: % Viability=[OD (sTRAIL) treated−background]/[OD (GFP) untreated−background]×100 and % Growth Inhibition=[1-(OD treated−background)/OD untreated−background)]×100.
In data set [6] the test system is VEGF induced vessel sprouting. As to the kind of experiment: Chick chorioallantoic membrane (CAM) assay. In kind it is in vivo. The following applies: 25 ng VEGF with 0.1, 1 and 10 ng protein from conditioned media; 72 hr. Here is the method: FIG. 4 illustrates the results of experiments that show PF4 and PF4(DLR) reduce VEGF stimulated angiogenesis in the chick chorioallantoic membrane (CAM) assay. Hyrdocortisone-containing filter disks were soaked with 25 ng of VEGF together with 0.1 ng, 1 ng and 10 ng of PF-4 or PF-4(DLR) derived from conditioned media. AAV-null, 293 cell supernatant and an internal PF-4 protein standard, PF4-Blast, were included in the assay as separate controls. Filter disks were aseptically placed on top of the chorioallantoic membranes of 11 day chick embryos. 72 hours after incubation the CAMs were surgically removed, fixed and the number of vessel sprouts determined by stereomicroscopy.
Hydrocortisone-containing filter discs are soaked with 25 ng Vascular Endothelium Growth Factor (VEGF) (R&D Systems, Minneapolis, Minn.) together with the indicated doses of conditioned media from control or vector transduced cells, and aseptically placed on top of the chorioallantoic membranes of 11 day old chick embryos. After 72 hr incubation, the CAMs are surgically removed, fixed and the discs are analyzed for VEGF-induced angiogenesis by stereomicroscopy. The mean number (+/−SEM) of branch points occurring in the new blood vessel sprouts beneath the applied filter disc from the treated CAMs is enumerated from multiple (n=8–10) samples. […]

Setting [7] is: Colo-205 cells pre-incubated with 20 uM inhibitor.
[8] abbreviates: Colo-205 cells, 4 hr incubation.

Where a chain is given by its changes, count along the chain named. Where a SMILES comes first, the peptide text is derived from it. The star is where a group is joined. Cbz = O=C(OCc1ccccc1)*; CH2F = FC*

Turning to `COC(=O)C[C@H](NC(=O)[C@H](C)NC(=O)[C@@H](NC(=O)OCc1ccccc1)C(C)C)C(=O)CF` [ZVAD-fmk] (Cbz-Val-Ala-Asp(OMe)-CH2F), in the data set with Colo-205 cells [1] (Colo-205 cells pre-incubated with increasing amounts of inhibitor, 6 hr after sTRAIL treatment), the “Effect on sTRAIL induced DNA fragmentation” value is given as “prevents sTRAIL induced DNA fragmentation in a dose-dependent manner”. Besides, the “Effect on TRAIL-induced caspase 8 protease activity” value in the data set on Caspase 8 (setting [7]) was “blocking of TRAIL-induced caspase protease activity”. Moreover, in the data set with Caspase 3 (setting [7]), the “Effect on TRAIL-induced caspase 3 protease activity” value is “blocking of TRAIL-induced caspase protease activity”.

As to TRAIL, the “Cytotoxic effect combined with chemotherapy” value in [2] (combined with sub-toxic doses of doxorubicin, cisplatin, or camptothecin) is given as “synergistic cytotoxic effect”. Moreover, in data set [2] (sub-optimal doses of TRAIL), the “Cell death with TRAIL alone” value is recorded as “refractory to cell death”. In addition, in data set [3], the “Cytotoxic activity combined with cyclo-oxygenase-2 inhibitors” value is recorded as “synergistic cytotoxic activity”.

Regarding “recombinant human TRAIL: recombinant human TRAIL purchased from a commercial vendor (RnD Systems)”, the “50% effective dose (ED50) for induction of apoptosis (DNA fragmentation)” value in the data set with Colo-205 cells [1] (Colo-205 cells, 6 hr incubation (sTRAIL 6, 16 and 24 hr), FIG. 11) is reported as “approximately 1 ng/ml”. The “Cytotoxicity in tumor cell lines” value with human tumor cell lines was “cytotoxicity was observed in a wide spectrum of human tumor cell lines”. Moreover, the “Induction of caspase 8 protease activity” value with Caspase 8 (setting [8]) was “Dose-dependent induction”. Besides, the “Cytotoxic effect combined with chemotherapy” value in data set [4] is “augmented cytotoxic effect”. For the same molecule, the “Induction of caspase 3 protease activity” value in the data set on Caspase 3 (setting [8]) was “Dose-dependent induction”. Besides, the “50% effective dose of Colo-205 growth inhibition” value with Colo-205 cells [5] was “approximately 0.5 ng/ml”.

B1: PF-4: platelet factor-4 from conditioned media of transfected 293 cells (SEQ ID NO:7) (protein)
chain: MSSAAGFCASRPGLLFLGLLLLPLVVAFASAEAEEDGDLQCLCVKTTSQVRPRHITSLEVIKAGPHCPTAQLIATLKNGRKICLDLQAPLYKKIIKKLLES
modifications: platelet factor-4
For B1, the “VEGF induced vessel sprouting” value in data set [6] is listed as “blockage of VEGF induced vessel sprouting”.

B2: PF-4(DLR): platelet factor-4 with the DLR mutation (SEQ ID NO:9) from conditioned media (protein)
chain: B1 chain with Q87R
modifications: platelet factor-4 with DLR mutation
For the molecule B2, the “VEGF induced vessel sprouting” value in [6] is listed as “blockage of VEGF induced vessel sprouting”.
